Laboratory results published in ChEMBL document CHEMBL3885861, “Open TG-GATES”.

Species on record: Rattus norvegicus
Experiment: Open TG-GATES - Regimen: Single
Type: toxicity, organism-based, Sprague-Dawley
Design: regimen Single, gender Male, age 6 weeks
Conditions: in vivo, po, 300 mg/kg, route gavage, dose level High; for APTT / Bas / Eos / Fbg / Hb / Ht / Lym / MCH / MCHC / MCV / Mono / Neu / PT / Plat / RBC / Ret / WBC: tissue Blood; for KIDNEY_L / KIDNEY_R / KIDNEY_TOTAL: tissue Kidney; for LIVER: tissue Liver; for A/G / ALP / ALT / AST / BUN / CRE / Ca / Cl / DBIL / GLC / IP / K / LDH / Na / PL / RALB / TBIL / TC / TG / TP / gamma-GTP: tissue Plasma

Structure (SMILES): CCC1(c2ccccc2)C(=O)NC(=O)NC1=O [PHENOBARBITAL]
- TERMINAL_BW (3 h): 225.3 g
- APTT (3 h): 22 s
- Bas (3 h): 0.2%
- Eos (3 h): 1%
- Fbg (3 h): 202.2 mg/dL
- Hb (3 h): 13.6 g/dL
- Ht (3 h): 37.8%
- Lym (3 h): 78.6%
- MCH (3 h): 21.9 pg
- MCHC (3 h): 36%
- MCV (3 h): 61.1 fL
- Mono (3 h): 2.8%
- Neu (3 h): 16.6%
- PT (3 h): 12.3 s
- Plat (3 h): 122.8 x10_4/uL
- RBC (3 h): 619.4 x10_4/ul
- Ret (3 h): 7.8%
- WBC (3 h): 75.1 x10_2/uL
- KIDNEY_L (3 h): 1 g
- KIDNEY_R (3 h): 1 g
- KIDNEY_TOTAL (3 h): 2.1 g
- LIVER (3 h): 10 g
- A/G (3 h): 1.6
- ALP (3 h): 833 IU/L
- ALT (3 h): 40.2 IU/L
- AST (3 h): 73 IU/L
- BUN (3 h): 8 mg/dL
- CRE (3 h): 0.3 mg/dL
- Ca (3 h): 10.5 mg/dL
- Cl (3 h): 100.6 meq/L
- DBIL (3 h): 0.064 mg/dL
- GLC (3 h): 183.2 mg/dL
- IP (3 h): 10.3 mg/dL
- K (3 h): 4.1 meq/L
- LDH (3 h): 142 IU/L
- Na (3 h): 140.6 meq/L
- PL (3 h): 152 mg/dL
- RALB (3 h): 3.2 g/dL
- TBIL (3 h): 0.1 mg/dL
- TC (3 h): 77 mg/dL
- TG (3 h): 57.2 mg/dL
- TP (3 h): 5.1 g/dL
- gamma-GTP (3 h): 0.8 IU/L
- TERMINAL_BW (6 h): 221.9 g
- APTT (6 h): 20.5 s
- Bas (6 h): 0%
- Eos (6 h): 1%
- Fbg (6 h): 219 mg/dL
- Hb (6 h): 14.2 g/dL
- Ht (6 h): 39.1%
- Lym (6 h): 76.8%
- MCH (6 h): 21.8 pg
- MCHC (6 h): 36.3%
- MCV (6 h): 60.2 fL
- Mono (6 h): 3.4%
- Neu (6 h): 17.6%
- PT (6 h): 12 s
- Plat (6 h): 120.7 x10_4/uL
- RBC (6 h): 649.4 x10_4/ul
- Ret (6 h): 7.7%
- WBC (6 h): 62.8 x10_2/uL
- KIDNEY_L (6 h): 1 g
- KIDNEY_R (6 h): 1 g
- KIDNEY_TOTAL (6 h): 2 g
- LIVER (6 h): 9.4 g
- A/G (6 h): 1.6
- ALP (6 h): 672.6 IU/L
- ALT (6 h): 29.2 IU/L
- AST (6 h): 58.4 IU/L
- BUN (6 h): 8.6 mg/dL
- CRE (6 h): 0.3 mg/dL
- Ca (6 h): 10.5 mg/dL
- Cl (6 h): 100.4 meq/L
- DBIL (6 h): 0.07 mg/dL
- GLC (6 h): 176 mg/dL
- IP (6 h): 9.5 mg/dL
- K (6 h): 4.2 meq/L
- LDH (6 h): 162.2 IU/L
- Na (6 h): 139.2 meq/L
- PL (6 h): 142.4 mg/dL
- RALB (6 h): 3.2 g/dL
- TBIL (6 h): 0.1 mg/dL
- TC (6 h): 74.4 mg/dL
- TG (6 h): 44.2 mg/dL
- TP (6 h): 5.2 g/dL
- gamma-GTP (6 h): 1.2 IU/L
- TERMINAL_BW (9 h): 219.7 g
- APTT (9 h): 19.3 s
- Bas (9 h): 0%
- Eos (9 h): 0.8%
- Fbg (9 h): 219.4 mg/dL
- Hb (9 h): 13.8 g/dL
- Ht (9 h): 38.3%
- Lym (9 h): 71.8%
- MCH (9 h): 22 pg
- MCHC (9 h): 36%
- MCV (9 h): 60.9 fL
- Mono (9 h): 3.6%
- Neu (9 h): 22%
- PT (9 h): 12.4 s
- Plat (9 h): 125.2 x10_4/uL
- RBC (9 h): 630.2 x10_4/ul
- Ret (9 h): 7.7%
- WBC (9 h): 73.7 x10_2/uL
- KIDNEY_L (9 h): 1 g
- KIDNEY_R (9 h): 1 g
- KIDNEY_TOTAL (9 h): 1.9 g
- LIVER (9 h): 8.6 g
- A/G (9 h): 1.5
- ALP (9 h): 558.2 IU/L
- ALT (9 h): 35.8 IU/L
- AST (9 h): 78 IU/L
- BUN (9 h): 9 mg/dL
- CRE (9 h): 0.3 mg/dL
- Ca (9 h): 10.3 mg/dL
- Cl (9 h): 99.6 meq/L
- DBIL (9 h): 0.064 mg/dL
- GLC (9 h): 186.2 mg/dL
- IP (9 h): 9.7 mg/dL
- K (9 h): 4.2 meq/L
- LDH (9 h): 170.4 IU/L
- Na (9 h): 139.4 meq/L
- PL (9 h): 137.8 mg/dL
- RALB (9 h): 3 g/dL
- TBIL (9 h): 0.1 mg/dL
- TC (9 h): 74.8 mg/dL
- TG (9 h): 29.8 mg/dL
- TP (9 h): 5 g/dL
- gamma-GTP (9 h): 1 IU/L
- TERMINAL_BW (24 h): 201.5 g
- APTT (24 h): 24.3 s
- Bas (24 h): 1%
- Eos (24 h): 1%
- Fbg (24 h): 207 mg/dL
- Hb (24 h): 16.1 g/dL
- Ht (24 h): 44.2%
- Lym (24 h): 82.3%
- MCH (24 h): 22 pg
- MCHC (24 h): 36.6%
- MCV (24 h): 60.1 fL
- Mono (24 h): 2.3%
- Neu (24 h): 13%
- PT (24 h): 12.3 s
- Plat (24 h): 145.9 x10_4/uL
- RBC (24 h): 735.3 x10_4/ul
- Ret (24 h): 6.5%
- WBC (24 h): 84.5 x10_2/uL
- KIDNEY_L (24 h): 1 g
- KIDNEY_R (24 h): 1 g
- KIDNEY_TOTAL (24 h): 2 g
- LIVER (24 h): 7.7 g
- A/G (24 h): 1.6
- ALP (24 h): 449.7 IU/L
- ALT (24 h): 21 IU/L
- AST (24 h): 53 IU/L
- BUN (24 h): 9 mg/dL
- CRE (24 h): 0.3 mg/dL
- Ca (24 h): 10.5 mg/dL
- Cl (24 h): 100 meq/L
- DBIL (24 h): 0.06 mg/dL
- GLC (24 h): 141 mg/dL
- IP (24 h): 9 mg/dL
- K (24 h): 4.6 meq/L
- LDH (24 h): 113.3 IU/L
- Na (24 h): 139.3 meq/L
- PL (24 h): 100 mg/dL
- RALB (24 h): 3.2 g/dL
- TBIL (24 h): 0.1 mg/dL
- TC (24 h): 58.7 mg/dL
- TG (24 h): 13.3 mg/dL
- TP (24 h): 5.2 g/dL
- gamma-GTP (24 h): 1 IU/L
